# Legend:
# Type in all cases: in vivo, Gottingen mini-pigs
# irradiated skin of pigs [1] = experiment: Skin biopsy histology (hematoxylin and eosin): basal cell density and epidermal thickness
# Experimental: A 5 mm punch biopsy was performed under anesthesia to obtain a skin sample from the non-irradiated healthy skin and the irradiated skin area 3, 7, 21, and 35 days after irradiation. After collection, skin biopsy samples were pinned to a cork to maintain the 5 mm size. Biopsy samples of non-irradiated skin were obtained from each pig before irradiation. All biopsy samples were processed and embedded in paraffin wax after fixation in 10% buffered formalin, then cut into 4 μm thick coronal sections and deparaffinized. Next, the sections were stained with hematoxylin and eosin and examined by optical microscopy. The longest rete ridge on each slide was selected and measured from the bottom of the basal layer to the bottom of the stratum corneum, avoiding the areas in which the inclusion appeared to be oblique. The mean values were then calculated based on the measurements of each section on each slide. The cell density of the basal layers was determined by counting the cells in the basement membrane at a depth of at least 5 mm. The results were expressed as the number of cells per millimeter of basement membrane.
# The data were expressed as the means±the standard error of the mean (SEM) values. Differences between groups were evaluated by one-way analysis of variance (ANOVA) followed by a Student-Newman-Keuls post hoc test for multiple comparisons. In all cases, a p<0.05 was considered significant.
# irradiated skin of pigs [2] = experiment: Gamma-radiation-induced dermatitis in mini-pigs, clinical skin reaction score
# From the text: Male Gottingen mini-pigs (mean weight, 19 kg; range, 18-20 kg; age, 6-7 months), obtained from Institute of Animal Breeding and Genetics, University of Gottingen, Germany, were used in these experiments. The mini-pigs were provided with tap water and commercial laboratory piglet chow from Purina Germany (Purina laboratory pig chow-5085) containing crude protein, fat, fiber, and ash, as well as calcium, phosphorus, and moisture (14.5, 4, 5, 8, 0.55, 1, and 14%, respectively). In addition, no antibiotic supplements were used. All animal experiments were performed in compliance to The German Animal Welfare Act.
# A formulation in accordance with embodiments of the present invention appropriate for topical administration was obtained by adding 200 mg of carbopol (Carbopol 934P; Lubrizol, USA) to 2.5 mL of distilled water and solubilizing 200 mg of 6OHM-6-HITC in 2 mL of ethanol. An appropriate amount of the ethanolic dispersion was transferred to the aqueous dispersion of carbopol. Methanol (1.25 mL) was mixed with 1 mL of ethanol and added to the 6OHM-6-HITC and carbopol mixture, which was gradually stirred, and carbopol was allowed to soak for 2 h. Triethanolamine (100 mg; Sigma-Aldrich, USA) was added to neutralize the carbopol solution and facilitate the formation of a gel, after which the pH was adjusted to 6.8. A vehicle cream was prepared using the same ingredients and identical methods as the cream, but 6OHM-6-HITC was omitted from the mixture. […] For topical treatment, 6OHM-6-HITC or the vehicle cream (concentration, 200 mg/cm^2) was spread on the irradiated skin of pigs twice daily for 35 days, and the first application was performed immediately after irradiation.
# To observe the effects of gamma-radiation on the skin of mini-pigs (3 animals per group), the dorsal skin was irradiated. […]
# The pigs were evaluated every week during the five weeks following the irradiation, and their skin reactions were scored using a clinical status scoring system. […]
# nuclear factor (NF)-κB = experiment: NF-κB immunohistochemistry of irradiated skin
# Experimental: After incubation in normal horse serum for 60 min to prevent nonspecific binding, the skin sections were incubated with mouse anti-nuclear factor (NF)-κB (sc-109, 1:200; Santa Cruz Biotechnology, Santa Cruz, CA, USA) and mouse anti-COX-2 (18-7379, 1:200; Zymed, USA) in phosphate buffered saline-Tween (PBS-T overnight at 4° C. The sections were subsequently incubated with biotinylated horse anti-mouse IgG (VECTASTAIN Elite ABC Kit; Vector Laboratories, USA). The immunoreactivity was assessed using the avidin-biotin peroxidase complex (VECTASTAIN Elite ABC Kit; Vector Laboratories). The peroxidase reaction was developed using a diaminobenzidine substrate kit (DAB Substrate Kit SK-4100; Vector Laboratories). As a control, the primary antibodies were omitted from the immunohistochemical analysis of a few test sections in each experiment. The sections were then counterstained with hematoxylin before being mounted.
smiles,measurement,setting,value
COc1cc2c(CCCCN=C=S)c[nH]c2cc1O [6OHM-6-HITC],basal cell counts (density) in the epidermis,"irradiated skin of pigs [1]; 21 days after irradiation, p<0.01 vs. vehicle-treated irradiation group",significantly ameliorated
same,thickness of the epidermis,"irradiated skin of pigs [1]; 35 days after irradiation, p<0.01 vs. vehicle-treated irradiation group",prevented this decrease
same,basal cell counts (density) in the epidermis,"irradiated skin of pigs [1]; 35 days after irradiation, p<0.05 vs. vehicle-treated irradiation group",significantly ameliorated
same,clinical changes of irradiated skin vs. vehicle-treated,"irradiated skin of pigs [2]; 1 week after 50 Gy gamma irradiation, topical twice daily",similar
same,severity of skin reaction vs. vehicle-treated irradiation group,"irradiated skin of pigs [2]; 50 Gy gamma irradiation, topical twice daily for 35 days",decreased severity in the skin reaction
same,time at which beneficial effects on the dermatitis appeared,"irradiated skin of pigs [2]; after 50 Gy gamma irradiation, topical twice daily",2 weeks
same,NF-κB expression in irradiated skin vs. vehicle-treated irradiated skin,"nuclear factor (NF)-κB; 7, 21 and 35 days after irradiation",lower
same,nuclear NF-κB expression,"nuclear factor (NF)-κB; irradiated skin, treated",rapidly decreased

# Reference: patent US12178800B2, “Sulforaphane-melatonin-like compound” (priority 2018, dated 2024)
